Among the data in patent US12344618B2, “Heterotricyclic derivative compound and use of same” (HANMI PHARMACEUTICAL CO., LTD., priority 2019, dated 2025) are IC50 and GI50 values, retold here.

For test [1], the target named is T1, EZH1 (Homo sapiens, UniProt Q92800).
T1 construct: purchased Reaction Biology Corp. (contract assay)
The test can be described thus: Inhibitory activity against EZH1 methyltransferase (radiometric scintillation proximity assay).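 Further: Read-out is methylation of a substrate peptide, captured on streptavidin-coated SPA beads and counted by scintillation, in Tris-HCl buffer at pH 8.0 with 1% DMSO.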 Type of test: biochemical. Conditions: 2.3 nmol/L enzyme, 90 minutes, room temperature. For orientation: Scintillation proximity formats need no separation of bound from free tracer.
Method: (§1) The inhibitory activities of the synthetic compounds against EZH1 or EZH2 methyltransferase were measured. The experiment was conducted by Reaction Biology Corp., and the activity of EZH1 or EZH2 was measured using a radiometric scintillation proximity assay. […] The reaction buffer consisted of 50 mmol/L Tris-HCl (pH 8.0), 50 mmol/L NaCl, 1 mmol/L EDTA, 1 mmoL/L DTT, 1 mmol/L PMSF, and 1% DMSO. Trichloroacetic acid was added to terminate the reaction, and PVT streptavidin-coated SPA beads were added to each reaction solution, followed by further reaction at room temperature for 1 hour again. The methylation value of the substrate peptide was measured using the TopCount NXT plate reader.

Test [2] deals with EZH2 (Homo sapiens, UniProt Q15910). Kind of test: Inhibitory activity against EZH2 methyltransferase (radiometric scintillation proximity assay).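 Further: Read-out is substrate peptide methylation, captured on streptavidin-coated SPA beads and counted by scintillation, with the reaction run in Tris-HCl buffer at pH 8.0 containing 1% DMSO.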 Conditions: Enzyme inhibitory activity (IC50, nM) EZH2, 2.3 nmol/L enzyme, 90 minutes, room temperature.
Method: as §1
The test system of test [3] is KARPAS-422 (EZH2 Y641N mutation). Kind of test: Cell growth inhibition test, KARPAS-422. It is filed as cell-based. To be noted: Homo sapiens, KARPAS-422, 168 h, KARPAS-422, culture time 7 days; read-out: Cell growth inhibitory activity (GI50, nM) KARPAS-422 (EZH2 Y641N mutation). The method, then:
Each type of the cultured cells was seeded in 6-well plates or 48-96 well plates, and subculture or medium replacement was performed every 3 to 4 days. Next, the cells were subcultured for a total of 7 to 14 days, and then seeded in 96-well plates. 3 to 5 days before the measurement of the effect, the cells were seeded in 96-well plates, and then the absorbance (Tz) on the day of seeding was measured. The absorbance after the reaction was measured by the plate reader device Synergy NeoAlpha (Biotek) using Cell-Titer-Glo Cell Viability Assay (Promega, G7573) according to the attached manual. Based on the absorbance (Tz) measured on the seeding day and the absorbance of each of the DMSO-treated group (C) and the sample-added group (Ti) measured on the day of effect determination, the percentage of cell proliferation inhibition was calculated according to the following Equation 1. [(Ti−Tz)/(C−Tz)]×100 for concentrations for which Ti≥Tz […] for concentrations for which Ti<Tz. [Equation 1]

Sequence of EZH2 (Q15910 whole entry): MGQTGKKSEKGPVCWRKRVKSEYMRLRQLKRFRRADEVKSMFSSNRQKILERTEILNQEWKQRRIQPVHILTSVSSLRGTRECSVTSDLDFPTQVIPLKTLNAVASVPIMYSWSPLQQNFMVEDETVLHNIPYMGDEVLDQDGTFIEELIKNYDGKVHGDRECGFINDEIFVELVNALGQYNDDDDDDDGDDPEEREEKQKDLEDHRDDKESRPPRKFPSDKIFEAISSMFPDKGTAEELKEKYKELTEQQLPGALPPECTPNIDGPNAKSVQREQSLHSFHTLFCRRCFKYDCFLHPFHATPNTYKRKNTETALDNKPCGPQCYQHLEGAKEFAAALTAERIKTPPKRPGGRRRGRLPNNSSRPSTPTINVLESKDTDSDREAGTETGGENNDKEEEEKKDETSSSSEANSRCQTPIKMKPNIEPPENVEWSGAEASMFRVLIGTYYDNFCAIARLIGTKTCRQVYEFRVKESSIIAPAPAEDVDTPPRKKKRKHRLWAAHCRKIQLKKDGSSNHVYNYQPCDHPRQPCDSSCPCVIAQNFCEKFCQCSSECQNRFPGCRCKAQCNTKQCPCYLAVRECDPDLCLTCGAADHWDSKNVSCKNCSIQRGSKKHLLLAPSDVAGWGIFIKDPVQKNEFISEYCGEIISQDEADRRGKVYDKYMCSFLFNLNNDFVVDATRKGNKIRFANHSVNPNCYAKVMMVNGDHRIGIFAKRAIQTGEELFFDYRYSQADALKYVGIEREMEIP
Sequence of EZH2 (O75530 whole entry partner): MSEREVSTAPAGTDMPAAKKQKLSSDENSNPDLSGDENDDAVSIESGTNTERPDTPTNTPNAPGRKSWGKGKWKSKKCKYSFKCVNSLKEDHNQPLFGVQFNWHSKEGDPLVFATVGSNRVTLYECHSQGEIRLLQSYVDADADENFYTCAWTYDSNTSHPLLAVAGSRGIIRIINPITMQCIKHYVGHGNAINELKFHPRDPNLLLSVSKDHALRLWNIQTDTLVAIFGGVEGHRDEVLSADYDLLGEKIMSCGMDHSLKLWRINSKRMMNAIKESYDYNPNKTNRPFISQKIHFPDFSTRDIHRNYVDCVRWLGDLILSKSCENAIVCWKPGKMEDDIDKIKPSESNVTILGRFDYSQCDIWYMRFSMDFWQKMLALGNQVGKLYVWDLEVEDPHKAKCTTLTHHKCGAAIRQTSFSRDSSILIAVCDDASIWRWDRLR
Sequence of EZH2 (Q15022 whole entry partner): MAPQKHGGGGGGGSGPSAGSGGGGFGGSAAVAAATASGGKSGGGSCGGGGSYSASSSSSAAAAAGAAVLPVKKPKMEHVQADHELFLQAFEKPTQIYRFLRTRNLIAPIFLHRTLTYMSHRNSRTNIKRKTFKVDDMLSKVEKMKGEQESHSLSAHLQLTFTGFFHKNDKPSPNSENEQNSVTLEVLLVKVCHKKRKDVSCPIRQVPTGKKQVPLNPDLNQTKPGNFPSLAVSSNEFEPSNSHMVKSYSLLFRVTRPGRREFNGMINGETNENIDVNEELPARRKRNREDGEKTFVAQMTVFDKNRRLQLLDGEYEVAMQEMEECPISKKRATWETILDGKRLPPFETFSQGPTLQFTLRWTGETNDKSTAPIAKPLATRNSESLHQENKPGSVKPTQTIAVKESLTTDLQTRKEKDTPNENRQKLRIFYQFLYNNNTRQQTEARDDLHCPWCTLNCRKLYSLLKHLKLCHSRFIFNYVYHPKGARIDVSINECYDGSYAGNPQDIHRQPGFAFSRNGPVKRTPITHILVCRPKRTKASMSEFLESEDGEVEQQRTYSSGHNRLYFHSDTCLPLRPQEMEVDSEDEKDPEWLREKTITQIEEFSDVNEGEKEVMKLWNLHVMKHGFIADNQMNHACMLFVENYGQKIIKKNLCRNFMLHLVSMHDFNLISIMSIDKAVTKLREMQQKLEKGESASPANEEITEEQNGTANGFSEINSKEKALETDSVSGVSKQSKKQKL
Sequence of EZH2 (Q09028 whole entry partner): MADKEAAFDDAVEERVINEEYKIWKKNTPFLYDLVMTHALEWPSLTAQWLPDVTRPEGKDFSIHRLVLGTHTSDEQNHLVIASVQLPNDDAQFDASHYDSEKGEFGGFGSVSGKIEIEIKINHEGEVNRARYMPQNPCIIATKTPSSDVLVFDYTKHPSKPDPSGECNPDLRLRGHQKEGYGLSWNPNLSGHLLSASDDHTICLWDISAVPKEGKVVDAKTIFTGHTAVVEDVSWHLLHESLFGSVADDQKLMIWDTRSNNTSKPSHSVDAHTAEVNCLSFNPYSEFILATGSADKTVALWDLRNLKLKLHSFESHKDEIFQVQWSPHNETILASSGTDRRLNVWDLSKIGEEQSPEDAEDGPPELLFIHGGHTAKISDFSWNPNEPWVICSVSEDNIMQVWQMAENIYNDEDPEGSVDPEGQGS
Sequence of EZH2 (Q6ZN18 whole entry partner): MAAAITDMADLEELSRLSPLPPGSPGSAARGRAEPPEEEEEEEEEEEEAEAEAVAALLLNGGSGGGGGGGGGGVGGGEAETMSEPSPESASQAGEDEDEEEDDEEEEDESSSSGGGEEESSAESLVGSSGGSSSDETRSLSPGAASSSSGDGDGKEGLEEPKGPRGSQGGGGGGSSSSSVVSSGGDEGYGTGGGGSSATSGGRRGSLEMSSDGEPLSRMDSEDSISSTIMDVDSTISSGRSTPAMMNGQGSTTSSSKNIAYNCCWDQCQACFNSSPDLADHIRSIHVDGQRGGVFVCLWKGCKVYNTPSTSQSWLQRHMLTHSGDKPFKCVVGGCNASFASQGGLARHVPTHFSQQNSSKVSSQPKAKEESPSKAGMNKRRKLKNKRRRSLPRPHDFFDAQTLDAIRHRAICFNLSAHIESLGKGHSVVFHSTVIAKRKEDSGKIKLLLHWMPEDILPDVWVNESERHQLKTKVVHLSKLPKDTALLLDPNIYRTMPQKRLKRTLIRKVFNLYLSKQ
T1 sequence (Q92800 whole entry): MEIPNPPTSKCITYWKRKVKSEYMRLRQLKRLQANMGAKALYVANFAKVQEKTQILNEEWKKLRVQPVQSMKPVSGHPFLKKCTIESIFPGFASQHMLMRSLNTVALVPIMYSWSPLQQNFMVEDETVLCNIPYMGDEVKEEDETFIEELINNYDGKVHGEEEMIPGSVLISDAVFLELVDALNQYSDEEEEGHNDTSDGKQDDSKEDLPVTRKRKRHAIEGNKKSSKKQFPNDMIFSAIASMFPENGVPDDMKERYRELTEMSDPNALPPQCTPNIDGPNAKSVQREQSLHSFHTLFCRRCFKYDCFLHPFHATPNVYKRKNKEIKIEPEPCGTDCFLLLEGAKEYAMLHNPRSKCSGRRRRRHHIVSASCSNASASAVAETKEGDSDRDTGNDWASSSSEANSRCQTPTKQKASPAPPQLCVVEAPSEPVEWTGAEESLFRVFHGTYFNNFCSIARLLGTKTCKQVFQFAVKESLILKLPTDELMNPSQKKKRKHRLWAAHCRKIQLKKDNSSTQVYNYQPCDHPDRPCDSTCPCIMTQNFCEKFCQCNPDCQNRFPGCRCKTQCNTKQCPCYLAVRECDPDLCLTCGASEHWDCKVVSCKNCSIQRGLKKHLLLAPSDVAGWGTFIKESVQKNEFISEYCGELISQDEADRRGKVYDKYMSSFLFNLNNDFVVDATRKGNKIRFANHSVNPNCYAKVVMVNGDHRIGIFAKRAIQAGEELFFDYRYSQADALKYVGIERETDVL
T1 sequence (O75530 whole entry partner): as the sequence (O75530 whole entry partner) above
T1 sequence (Q15022 whole entry partner): as the sequence (Q15022 whole entry partner) above
T1 sequence (Q09028 whole entry partner): as the sequence (Q09028 whole entry partner) above
T1 sequence (Q6ZN18 whole entry partner): as the sequence (Q6ZN18 whole entry partner) above

The term IC50 denotes the concentration that inhibits the measured activity by half. For the compound `Cc1cc(C)c(CN2CCc3cc4c(c(C)c3C2=O)OC(C)([C@H]2CC[C@H](N(C)C)CC2)O4)c(=O)[nH]1` (stereo partly drawn) [Compound 1, 6-((4,6-dimethyl-2-oxo-1,2-dihydropyridin-3-yl)methyl)-2(trans-4-(dimethylamino)cyclohexyl)-2,4-dimethyl-7,8-dihydro-[1,3]dioxolo[4,5-g]isoquinolin-5(6H)-one], the figures for the half-maximal inhibitory concentration (IC50) in test [1] and in test [2] were 97.6 nM and 14.3 nM, respectively.

Take `Cc1cc(C)c(CN2CCc3cc4c(cc3C2=O)OC(C)([C@H]2CC[C@H](N(C)C)CC2)O4)c(=O)[nH]1` (stereo partly drawn) [Compound 2, 6-((4,6-dimethyl-2-oxo-1,2-dihydropyridin-3-yl)methyl)-2(trans-4-(dimethylamino)cyclohexyl)-2-methyl-7,8-dihydro-[1,3]dioxolo[4,5-g]isoquinolin-5(6H)-one]: the results for the half-inhibitory concentration (IC50) in test [1] and in test [2] were 371 nM and 7.9 nM, respectively.

In general, GI50 refers to the concentration at which growth is held to half of that of the control. Turning to `Cc1cc(C)c(CN2CCc3c(Cl)c4c(c(Cl)c3C2=O)OC(C)([C@H]2CC[C@H](N(C)C)CC2)O4)c(=O)[nH]1` (stereo partly drawn) [Compound 7, 4,9-dichloro-6-((4,6-dimethyl-2-oxo-1,2-dihydropyridin-3-yl)methyl)-2-(trans-4-(dimethylamino)cyclohexyl)-2-methyl-7,8-dihydro-[1,3]dioxolo[4,5-g]isoquinolin-5(6H)-one], the IC50 in test [1] worked out at 54 nM; in test [2], 3.8 nM. Besides, in test [3], the 50% growth inhibitory concentration (GI50) was determined as 4.8 nM.

On to `CCCc1cc(C)[nH]c(=O)c1CN1CCc2c(Cl)c3c(c(C)c2C1=O)OC(C)([C@H]1CC[C@H](N(C)C)CC1)O3` (stereo partly drawn) [Compound 14, 9-chloro-2-(trans-4-(dimethylamino)cyclohexyl)-2,4-dimethyl-6-((6-methyl-2-oxo-4-propyl-1,2-dihydropyridin-3-yl)methyl)-7,8-dihydro-[1,3]dioxolo[4,5-g]isoquinolin-5(6H)-one], for which the IC50 in test [1] was found to be 27 nM; in test [2], 3.2 nM. Besides, the GI50 in test [3] was 50 nM.

As for `CCN[C@H]1CC[C@H](C2(C)Oc3c(C)c4c(c(Cl)c3O2)CCN(Cc2c(C)cc(C)[nH]c2=O)C4=O)CC1` (stereo partly drawn) [Compound 15, 9-chloro-6-((4,6-dimethyl-2-oxo-1,2-dihydropyridin-3-yl)methyl)-2-(trans-4-(ethylamino)cyclohexyl)-2,4-dimethyl-7,8-dihydro-[1,3]dioxolo[4,5-g]isoquinolin-5(6H)-one], the IC50 was determined as 65 nM in test [1] and 3.6 nM in test [2]. The GI50 in test [3] worked out at 18 nM.

Turning to `CCN(CC)[C@H]1CC[C@H](C2(C)Oc3c(C)c4c(c(Cl)c3O2)CCN(Cc2c(C)cc(C)[nH]c2=O)C4=O)CC1` (stereo partly drawn) [Compound 16, 9-chloro-2-(trans-4-(diethylamino)cyclohexyl)-6-((4,6-dimethyl-2-oxo-1,2-dihydropyridin-3-yl)methyl)-2,4-dimethyl-7,8-dihydro-[1,3]dioxolo[4,5-g]isoquinolin-5(6H)-one], the IC50 in test [1] was determined as 89 nM; in test [2], 11 nM. Moreover, the 50% growth inhibitory concentration (GI50) in test [3] is 68 nM.

For the compound `Cc1cc(C)c(CN2CCc3c(Cl)c4c(c(C)c3C2=O)OC(C)([C@H]2CC[C@H](N3CCCCC3)CC2)O4)c(=O)[nH]1` (stereo partly drawn) [Compound 17, 9-chloro-6-((4,6-dimethyl-2-oxo-1,2-dihydropyridin-3-yl)methyl)-2,4-dimethyl-2-(trans-4-(piperidin-1-yl)cyclohexyl)-7,8-dihydro-[1,3]dioxolo[4,5-g]isoquinolin-5(6H)-one], the 50% inhibitory concentration (IC50) in test [1] worked out at 74 nM; in test [2], 5.6 nM. For the same compound, in test [3], the concentration for 50% growth inhibition (GI50) is 52 nM.

Consider `Cc1cc(C)c(CN2CCc3c(Cl)c4c(c(C)c3C2=O)OC(C)([C@H]2CC[C@H](N3CCCC3)CC2)O4)c(=O)[nH]1` (stereo partly drawn) [Compound 18, 9-chloro-6-((4,6-dimethyl-2-oxo-1,2-dihydropyridin-3-yl)methyl)-2,4-dimethyl-2-(trans-4-(pyrrolidin-1-yl)cyclohexyl)-7,8-dihydro-[1,3]dioxolo[4,5-g]isoquinolin-5(6H)-one], for which the IC50 in test [1] worked out at 47 nM; in test [2], 4.3 nM. In addition, the GI50 in test [3] was determined as 16 nM.

Turning to `CC[C@H](O)C(=O)N[C@H]1CC[C@H](C2(C)Oc3c(C)c4c(c(Cl)c3O2)CCN(Cc2c(C)cc(C)[nH]c2=O)C4=O)CC1` (stereo partly drawn) [Compound 19], in test [2], inhibition was half-maximal at 4.4 nM (IC50). Besides, the GI50 in test [3] turned out to be 440 nM.

`Cc1cc(C)c(CN2CCc3c(Cl)c4c(c(C)c3C2=O)OC(C)(C[C@H]2CC[C@H](N)CC2)O4)c(=O)[nH]1` (stereo partly drawn) [Compound 20]: the results for the IC50 in test [1] and in test [2] were 48 nM and 3.7 nM, respectively. The 50% growth inhibitory concentration (GI50) in test [3] was 18 nM.

On to `Cc1cc(C)c(CN2CCc3c(Cl)c4c(c(C)c3C2=O)OC(C)(C[C@H]2CC[C@H](N(C)C)CC2)O4)c(=O)[nH]1` (stereo partly drawn) [Compound 21, 9-chloro-6-((4,6-dimethyl-2-oxo-1,2-dihydropyridin-3-yl)methyl)-2-((trans-4-(dimethylamino)cyclohexyl)methyl)-2,4-dimethyl-7,8-dihydro-[1,3]dioxolo[4,5-g]isoquinolin-5(6H)-one], for which the IC50 in test [1] amounted to 137 nM; in test [2], 7.2 nM. Besides, in test [3], the concentration for 50% growth inhibition (GI50) amounted to 75 nM.

With `Cc1cc(C)c(CN2CCc3c(Cl)c4c(c(C)c3C2=O)OC(C)(C2CCCCC2)O4)c(=O)[nH]1` (stereo not drawn) [Compound 22, 9-chloro-2-cyclohexyl-6-((4,6-dimethyl-2-oxo-1,2-dihydropyridin-3-yl)methyl)-2,4-dimethyl-7,8-dihydro-[1,3]dioxolo[4,5-g]isoquinolin-5(6H)-one], the IC50 amounted to 180 nM in test [1] and 16 nM in test [2]. Moreover, in test [3], the GI50 was over 1000 nM.

In test [2], `Cc1cc(C)c(CN2CCc3c(Cl)c4c(c(C)c3C2=O)OC(C)(C2CCCC2)O4)c(=O)[nH]1` (stereo not drawn) [Compound 23, 9-chloro-2-cyclopentyl-6-((4,6-dimethyl-2-oxo-1,2-dihydropyridin-3-yl)methyl)-2,4-dimethyl-7,8-dihydro-[1,3]dioxolo[4,5-g]isoquinolin-5(6H)-one] yielded a concentration for half-maximal inhibition (IC50) of 4.4 nM. Moreover, the concentration for 50% growth inhibition (GI50) in test [3] was over 1000 nM.

Consider `Cc1cc(C)c(CN2CCc3c(Cl)c4c(c(C)c3C2=O)OC(C)(c2ccc(N(C)C)cc2)O4)c(=O)[nH]1` (stereo not drawn) [Compound 25, 9-chloro-6-((4,6-dimethyl-2-oxo-1,2-dihydropyridin-3-yl)methyl)-2-(4-(dimethylamino)phenyl)-2,4-dimethyl-7,8-dihydro-[1,3]dioxolo[4,5-g]isoquinolin-5(6H)-one], for which the concentration for half-maximal inhibition (IC50) turned out to be 166 nM in test [1] and 11 nM in test [2].

Regarding `Cc1cc(C)c(CN2CCc3c(Cl)c4c(c(C)c3C2=O)OC(C)(c2c(C)noc2C)O4)c(=O)[nH]1` (stereo not drawn) [Compound 27], the values for the half-inhibitory concentration (IC50) in test [1] and in test [2] were 310 nM and 3.9 nM, respectively.

Take `Cc1cc(C)c(CN2CCc3c(C)c4c(c(C)c3C2=O)OC(C)([C@H]2CC[C@H](N)CC2)O4)c(=O)[nH]1` (stereo partly drawn) [Compound 38, 2-(trans-4-aminocyclohexyl)-6-((4,6-dimethyl-2-oxo-1,2-dihydropyridin-3-yl)methyl)-2,4,9-trimethyl-7,8-dihydro-[1,3]dioxolo[4,5-g]isoquinolin-5(6H)-one]: the IC50 worked out at 54 nM in test [1] and 4.4 nM in test [2].

`Cc1cc(C)c(CN2CCc3c(C)c4c(c(C)c3C2=O)OC(C)(C2CCCCC2)O4)c(=O)[nH]1` (stereo not drawn) [Compound 44, 2-cyclohexyl-6-((4,6-dimethyl-2-oxo-1,2-dihydropyridin-3-yl)methyl)-2,4,9-trimethyl-7,8-dihydro-[1,3]dioxolo[4,5-g]isoquinolin-5(6H)-one]: the results for the IC50 in test [1] and in test [2] were 34 nM and 0.4 nM, respectively.

On to `CCN[C@H]1CC[C@H](C2(C)Oc3c(C)c4c(c(C)c3O2)C(=O)N(Cc2c(OC)cc(C)[nH]c2=O)CC4)CC1` (stereo partly drawn) [Compound 45, 2-(trans-4-(ethylamino)cyclohexyl)-6-((4-methoxy-6-methyl-2-oxo-1,2-dihydropyridin-3-yl)methyl)-2,4,9-trimethyl-7,8-dihydro-[1,3]dioxolo[4,5-g]isoquinolin-5(6H)-one], for which the half-maximal inhibitory concentration (IC50) in test [1] turned out to be 18 nM; in test [2], 6.2 nM.

Turning to `CCN(CC)[C@H]1CC[C@H](C2(C)Oc3c(C)c4c(c(C)c3O2)C(=O)N(Cc2c(OC)cc(C)[nH]c2=O)CC4)CC1` (stereo partly drawn) [Compound 46, 2-(trans-4-(diethylamino)cyclohexyl)-6-((4-methoxy-6-methyl-2-oxo-1,2-dihydropyridin-3-yl)methyl)-2,4,9-trimethyl-7,8-dihydro-[1,3]dioxolo[4,5-g]isoquinolin-5(6H)-one], the IC50 in test [1] is 16 nM; in test [2], 9.7 nM.

Consider `CCN(C)[C@H]1CC[C@H](C2(C)Oc3c(C)c4c(c(C)c3O2)C(=O)N(Cc2c(OC)cc(C)[nH]c2=O)CC4)CC1` (stereo partly drawn) [Compound 47], for which the half-inhibitory concentration (IC50) in test [1] amounted to 20 nM; in test [2], 7 nM.

For `Cc1cc(C)c(CN2CCc3c(c(C)c4c(c3-c3ccc(CN5CCOCC5)cc3)OC(C)([C@H]3CC[C@H](N(C)C)CC3)O4)C2=O)c(=O)[nH]1` (stereo partly drawn) [Compound 55, 6-((4,6-dimethyl-2-oxo-1,2-dihydropyridin-3-yl)methyl)-2-(trans-4-(dimethylamino)cyclohexyl)-2,4-dimethyl-9-(4-(morpholinomethyl)phenyl)-7,8-dihydro-[1,3]dioxolo[4,5-g]isoquinolin-5(6H)-one], the IC50 was 26 nM in test [1] and 5.6 nM in test [2].
